Experimental data published in patent publication US4762701A, “In vivo cellular tracking” (SmithKline Beckman Corporation, priority 1986, dated 1988).
Peptide text beside a SMILES is read from it.

Key:
Yac cells = experiment: Doubling time of Yac cells after thirty minutes exposure to osmolarity regulating agents; format: cell-based, mouse; details: for Doubling Time: after thirty minutes exposure, PBS is the comparator; for effects on cell doubling time: compared to phosphate buffered saline
Method: The effect on cell viability of exposure to a variety of osmolarity regulating agents was determined by measuring the doubling time of Yac cells after the cells were exposed for thirty minutes to a variety of osmolarity regulating agents. Yac cells are a mouse lymphoma tissue culture cell line available from the American Type Culture Collection, Rockville, Maryland, and are described in the European Journal of Immunology 5:112-117 (1975).

V79 cells = experiment: Growth kinetics of stained V79 cells; format: cell-based; details: 10^-5 or 4×10^-5 M dye, versus unstained cells
Method: Cells cyanine dye labelled using the presently invented procedure were analyzed to determine the effect of labelling on cell viability. V79 cells which are available from the American Type Culture Collection, Rockville, Maryland, and are described in Prescott, D. M., Ann. New York Acad. Sci., 397:101-109 (1982), were labelled with a solution containing DiOC14 (3) at a concentration of 10^-5 or 4×10^-5 M and the growth kinetics of the stained cells were compared to unstained cells and an equal mixture of stained and unstained cells. […] Thus, labelling had no effect on cell growth.

[1] = Cyanine dye solubility in osmolarity regulating agents (relative fluorescence intensity, ethanol standard); format: physicochemical
Method: (§1) Included within compounds referred to herein as cyanine dyes are compounds of the above structure having one or more substitutions provided such substituted compounds are soluble in cell labelling media for at least as long as needed for labelling and have a sufficiently high membrane partition coefficient to remain associated with labelled cell membranes. […] Solubility in cell labelling media is determined as shown below by dispursing a cyanine dye in the labelling media and, by standard spectrafluorometric techniques, measuring fluorescence intensity over time. Decreasing fluorescence intensity indicates dye precipitation and adherence to vessel walls. Whether the dyes remain associated with cell membranes is determined, for example, using known flow cytometric procedures to monitor fluorescence intensity of red blood cells injected into the donor animal after labelling. Essentially constant fluorescence intensity of the labelled cells after injection establishes stability of the dye in cell membranes.
All measurements of concentration were made after removal of precipitates by centrifugation and dissolving small aliquots of osmolarity regulating agents containing cyanine dyes into ethanol for spectrofluorometric analysis. The dyes used were DiSC14 (5) and DiOC14 (3), and the osmolarity regulating agents were at iso-osmotic concentrations. Reductions in fluorescence intensity from the ethanol solution standard directly correlate with reductions in cyanine dye solubility.

rabbit red cells = experiment: In vivo stability of labelled rabbit red cells after reinfusion
Source text: To test in vivo stability of cells cyanine dye labelled according to the presently invented method, rabbit red cells were withdrawn, labelled with DiSC14 (5), and reinfused. Periodically thereafter, blood samples were obtained and analyzed for percent labelled cells and fluorescence intensity of the labelled cells.
In the fifth animal, not more than 20% of the cyanine dye had migrated from the labelled cells after 60 days in the rabbits' circulation.

[2] = Stability of DiSC14 (5) solutions in osmolarity regulating agents; format: physicochemical
Method: as §1
Additionally, stability of DiSC14 (5) solutions in sugars such as glucose, fructose, ribose, sorbose, sucrose, and xylose, sugar-alcohols such as glycerol, inositol, xylitol, and adonitol, and amino acids such as glycine and arginine was determined.

[3] = Solubility of DiSC14 (5) in iso-osmotic glucose diluted with water or sodium chloride solution; format: physicochemical
Method: Further, the solubility of cyanine dyes in a medium containing classical salts and osmolarity regulators in which the dyes are soluble was evaluated. […] Thus, reproducible cell labelling with cyanine dyes can be performed in media containing no more than small amounts of classical salts, such as sodium chloride, potassium chloride, calcium chloride, sodium acetate, potassium acetate, sodium sulfate, sodium iodide, choline chloride, or choline iodide, and preferably is performed in a medium in which no classical salts are used to regulate osmolarity.

[4] = in Phosphate Buffered Saline, ethanol = 100
[5] = in iso-osmotic Arginine, ethanol = 100
[6] = in iso-osmotic Choline Chloride, ethanol = 100, ** (DiSC14 (5) value) Artifact due to large crystals that did not pellet
[7] = in iso-osmotic Choline Iodide, ethanol = 100
[8] = in iso-osmotic Fructose, ethanol = 100
[9] = in iso-osmotic Glucose, ethanol = 100
[10] = in iso-osmotic Glycerol, ethanol = 100
[11] = in iso-osmotic Glycine, ethanol = 100
[12] = in iso-osmotic Inositol, ethanol = 100
[13] = in iso-osmotic Lyxose, ethanol = 100
[14] = in iso-osmotic Na2 SO4, ethanol = 100
[15] = in iso-osmotic NaCl, ethanol = 100
[16] = in iso-osmotic NaI, ethanol = 100
[17] = in iso-osmotic Ribose, ethanol = 100
[18] = in iso-osmotic Sorbose, ethanol = 100
[19] = in iso-osmotic Sucrose, ethanol = 100
[20] = in iso-osmotic Xylitol, ethanol = 100
[21] = in iso-osmotic Xylose, ethanol = 100
[22] = rabbit, reinfused labelled red cells

## NCCCS(=O)(=O)O [3-Amino-1-propanesulfonic acid]
Yac cells
  Doubling Time: 99.6 h

## NC(=O)CNCCS(=O)(=O)O [ACES, 2-[(2-Amino-2-oxoethyl)amino]ethane sulfonic acid]
Yac cells
  Doubling Time: 1038.4 h

## O=C(O)CN(CCO)CCO [BICINE, N,N--bis(2-hydroxyethyl)glycine]
Yac cells
  Doubling Time: 57.7 h

## O=S(=O)(O)CCCNC1CCCCC1 [CAPS, 3-(Cyclohexylamino)-1-propanesulfonic acid]
Yac cells
  Doubling Time: 45.8 h
  effects on cell doubling time: negligible effects on cell doubling time

## O=S(=O)(O)CCNC1CCCCC1 [CHES, 2-(N--cyclohexylamino)ethane sulfonic acid]
Yac cells
  Doubling Time: 51.5 h

## O=S(=O)(O)CC(O)CN(CCO)CCO (centres unmarked) [DIPSO, 3-[N--N--bis(2-hydroxyethyl)amino]-2-hydroxypropane-sulfonic acid]
Yac cells
  Doubling Time: 36.7 h
  effects on cell doubling time: negligible effects on cell doubling time

## CCCCCCCCCCCCCCN1C(=CC=Cc2oc3ccccc3[n+]2CCCCCCCCCCCCCC)Oc2ccccc21 [DiOC14 (3)]
V79 cells
  Cell doubling time of labelled cells: Cell doubling time was unaffected by cyanine dye labelling
[1]; in Ethanol (standard)
  Relative Fluorescence Intensity (CONC): 100
[1]; [4]
  Relative Fluorescence Intensity (CONC): 6.5
[1]; [5]
  Relative Fluorescence Intensity (CONC): 17.2
[1]; [6]
  Relative Fluorescence Intensity (CONC): 6.3
[1]; [7]
  Relative Fluorescence Intensity (CONC): 2.3
[1]; [8]
  Relative Fluorescence Intensity (CONC): 100
[1]; [9]
  Relative Fluorescence Intensity (CONC): 100
[1]; [10]
  Relative Fluorescence Intensity (CONC): 99.5
[1]; [11]
  Relative Fluorescence Intensity (CONC): 93
[1]; [12]
  Relative Fluorescence Intensity (CONC): 92
[1]; [13]
  Relative Fluorescence Intensity (CONC): 1.8
[1]; [14]
  Relative Fluorescence Intensity (CONC): 1.6
[1]; [15]
  Relative Fluorescence Intensity (CONC): 1.7
[1]; [16]
  Relative Fluorescence Intensity (CONC): 0.14
[1]; [17]
  Relative Fluorescence Intensity (CONC): 100
[1]; [18]
  Relative Fluorescence Intensity (CONC): 100
[1]; [19]
  Relative Fluorescence Intensity (CONC): 100
[1]; [20]
  Relative Fluorescence Intensity (CONC): 76.4
[1]; [21]
  Relative Fluorescence Intensity (CONC): 19-52

## CCCCCCCCCCCCCCN1C(=CC=CC=Cc2sc3ccccc3[n+]2CCCCCCCCCCCCCC)Sc2ccccc21 [DiSC14 (5)]
Rabbit red cells; 60 days after labelling and reinjection, all but one of five rabbits
  fluorescence intensity of the stained cells: remained essentially unchanged 60 days after labelling and reinjection
Rabbit red cells; fifth rabbit, after 60 days in circulation
  cyanine dye migrated from the labelled cells: not more than 20%
Rabbit red cells; rabbit, labelled red cells
  clearance rate of red blood cells: did not affect the clearance rate of red blood cells
Rabbit red cells; [22]
  lifetime of labelled red cells: 52 days
  number of circulating labelled red cells over time: decreased linearly as a function of time
[2]; in glucose, fructose, ribose, sorbose, sucrose, xylose, glycerol, inositol, xylitol, adonitol, glycine, arginine
  time for which dye was stable in solution: at least twenty
[2]; in many of the agents, sixty minutes
  amount of cyanine dye in solution at sixty minutes: had not significantly decreased at sixty minutes
[1]; in Ethanol (standard)
  Relative Fluorescence Intensity (CONC): 100
[1]; [4]
  Relative Fluorescence Intensity (CONC): 2.1
[1]; in iso-osmotic Adonitol, ethanol = 100
  Relative Fluorescence Intensity (CONC): 34
[1]; [5]
  Relative Fluorescence Intensity (CONC): 17
[1]; in iso-osmotic CAPS, ethanol = 100
  Relative Fluorescence Intensity (CONC): 40
[1]; [6]
  Relative Fluorescence Intensity (CONC): 11
[1]; [7]
  Relative Fluorescence Intensity (CONC): 0.16
[1]; in iso-osmotic DIPSO, ethanol = 100, *** Precipitate in ethanol (data questionable)
  Relative Fluorescence Intensity (CONC): 43
[1]; in iso-osmotic EPPS, ethanol = 100
  Relative Fluorescence Intensity (CONC): 18
[1]; [8]
  Relative Fluorescence Intensity (CONC): 35
[1]; [9]
  Relative Fluorescence Intensity (CONC): 31
[1]; [10]
  Relative Fluorescence Intensity (CONC): 39
[1]; [11]
  Relative Fluorescence Intensity (CONC): 31
[1]; in iso-osmotic HEPPSO, ethanol = 100
  Relative Fluorescence Intensity (CONC): 20
[1]; [12]
  Relative Fluorescence Intensity (CONC): 42
[1]; [13]
  Relative Fluorescence Intensity (CONC): 0.12
[1]; in iso-osmotic Mannitol, ethanol = 100
  Relative Fluorescence Intensity (CONC): 29
[1]; [14]
  Relative Fluorescence Intensity (CONC): 7.4
[1]; [15]
  Relative Fluorescence Intensity (CONC): 6
[1]; [16]
  Relative Fluorescence Intensity (CONC): 1.1
[1]; [17]
  Relative Fluorescence Intensity (CONC): 24
[1]; [18]
  Relative Fluorescence Intensity (CONC): 40
[1]; [19]
  Relative Fluorescence Intensity (CONC): 41
[1]; in iso-osmotic TAPS, ethanol = 100
  Relative Fluorescence Intensity (CONC): 18
[1]; [20]
  Relative Fluorescence Intensity (CONC): 34
[1]; [21]
  Relative Fluorescence Intensity (CONC): 36
[3]; diluted with distilled water
  solubility in iso-osmotic glucose solution on dilution with distilled water: not significantly affected by dilution with distilled water
[3]; dilution with only approximately 20% iso-osmotic sodium chloride solution
  solubility in iso-osmotic glucose solution on dilution with sodium chloride solution: reduced significantly

## O=S(=O)(O)CCCN1CCN(CCO)CC1 [EPPS, N--(2-Hydroxyethyl)piperazine-N'--3-propanesulfonic acid]
Yac cells
  Doubling Time: 32.2 h
  effects on cell doubling time: negligible effects on cell doubling time

## N[C@H]1C(O)O[C@H](CO)[C@@H](O)[C@@H]1O (some centres unmarked) [Glucosamine]
Yac cells
  Doubling Time: 288.4 h

## O=C[C@H](O)[C@@H](O)[C@H](O)[C@H](O)CO [Glucose]
Yac cells
  Doubling Time: 34.5 h
  effects on cell doubling time: negligible effects on cell doubling time

## NCC(=O)NCC(=O)O [Glycylglycine] (H-Gly-Gly-OH)
Yac cells
  Doubling Time: 66.9 h

## O=S(=O)(O)CC(O)CN1CCN(CCO)CC1 (centres unmarked) [HEPPSO, N--2-hydroxyethylpiperazine-N'--2-hydroxypropane-sulfonic acid]
Yac cells
  Doubling Time: 23.4 h
  effects on cell doubling time: negligible effects on cell doubling time

## O=S(=O)(O)CC(O)CN1CCOCC1 (centres unmarked) [MOPSO, 3-(N--morpholino)-2-hydroxypropane-sulfonic acid]
Yac cells
  Doubling Time: 178.4 h

## OC[C@H]1O[C@@](CO)(O[C@H]2O[C@H](CO)[C@@H](O)[C@H](O)[C@H]2O)[C@@H](O)[C@@H]1O [Sucrose]
Yac cells
  Doubling Time: 41.0 h
  effects on cell doubling time: negligible effects on cell doubling time

## O=S(=O)(O)CCCNC(CO)(CO)CO [TAPS, Tris(hydroxymethyl)-methylaminopropane sulfonic acid]
Yac cells
  Doubling Time: 32.7 h
  effects on cell doubling time: negligible effects on cell doubling time

## O=S(=O)(O)CC(O)CNC(CO)(CO)CO (centres unmarked) [TAPSO, 3-[N--tris(hydroxymethyl)methylamino]-2-hydroxypropanesulfonic acid]
Yac cells
  Doubling Time: 63.6 h
